Data reported in PubChem BioAssay (NCI).
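In this assay, cells in 96-well plates receive the compound at five concentrations for 48 hours. Endpoints are linearly interpolated between the surrounding concentrations. TGI marks complete inhibition of growth.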

Key:
Assay in all cases: NCI tumour cell line growth inhibition, 48 h
786-0 renal = test system: 786-0 renal
A498 renal = test system: A498 renal
A549 NSCLC = test system: A549 NSCLC
ACHN renal = test system: ACHN renal
BT-549 breast = test system: BT-549 breast
CAKI-1 renal = test system: CAKI-1 renal
CCRF-CEM leukemia = test system: CCRF-CEM leukemia
COLO 205 colon = test system: COLO 205 colon
DU-145 prostate = test system: DU-145 prostate
EKVX NSCLC = test system: EKVX NSCLC
HCT-116 colon = test system: HCT-116 colon
HCT-15 colon = test system: HCT-15 colon
HL-60(TB) leukemia = test system: HL-60(TB) leukemia
HOP-62 NSCLC = test system: HOP-62 NSCLC
HOP-92 NSCLC = test system: HOP-92 NSCLC
HS 578T breast = test system: HS 578T breast
HT29 colon = test system: HT29 colon
IGROV1 ovarian = test system: IGROV1 ovarian
K-562 leukemia = test system: K-562 leukemia
KM12 colon = test system: KM12 colon
LOX IMVI melanoma = test system: LOX IMVI melanoma
M14 melanoma = test system: M14 melanoma
MALME-3M melanoma = test system: MALME-3M melanoma
MCF7 breast = test system: MCF7 breast
MDA-MB-231 breast = test system: MDA-MB-231 breast
MDA-MB-435 = test system: MDA-MB-435
MDA-N = test system: MDA-N
MOLT-4 leukemia = test system: MOLT-4 leukemia
NCI-H226 lung = test system: NCI-H226 lung
NCI-H23 lung = test system: NCI-H23 lung
NCI-H460 lung = test system: NCI-H460 lung
NCI-H522 lung = test system: NCI-H522 lung
NCI/ADR-RES ovarian = test system: NCI/ADR-RES ovarian
OVCAR-3 ovarian = test system: OVCAR-3 ovarian
OVCAR-4 ovarian = test system: OVCAR-4 ovarian
OVCAR-5 ovarian = test system: OVCAR-5 ovarian
OVCAR-8 ovarian = test system: OVCAR-8 ovarian
PC-3 prostate = test system: PC-3 prostate
RPMI-8226 leukemia = test system: RPMI-8226 leukemia
SF-268 CNS = test system: SF-268 CNS
SF-295 CNS = test system: SF-295 CNS
SF-539 CNS = test system: SF-539 CNS
SK-MEL-2 melanoma = test system: SK-MEL-2 melanoma
SK-MEL-28 melanoma = test system: SK-MEL-28 melanoma
SK-MEL-5 melanoma = test system: SK-MEL-5 melanoma
SK-OV-3 ovarian = test system: SK-OV-3 ovarian
SN12C renal = test system: SN12C renal
SNB-19 CNS = test system: SNB-19 CNS
SNB-75 CNS = test system: SNB-75 CNS
SR leukemia = test system: SR leukemia
SW-620 colon = test system: SW-620 colon
T-47D breast = test system: T-47D breast
TK-10 renal = test system: TK-10 renal
U251 CNS = test system: U251 CNS
UACC-257 melanoma = test system: UACC-257 melanoma
UACC-62 melanoma = test system: UACC-62 melanoma
HCC-2998 colon = test system: HCC-2998 colon
RXF 393 renal = test system: RXF 393 renal
UO-31 renal = test system: UO-31 renal

**Q.** Which results are given for O=[N+]([O-])c1ccc2c(c1)S(=O)c1ccccc1-2 (configuration not stated)?
**A.** TGI (786-0 renal): > 100 µM; TGI (A498 renal): > 100 µM; TGI (A549 NSCLC): > 100 µM; TGI (ACHN renal): > 100 µM; TGI (BT-549 breast): > 100 µM; TGI (CAKI-1 renal): > 100 µM; TGI (CCRF-CEM leukemia): > 100 µM; TGI (COLO 205 colon): > 100 µM; TGI (DU-145 prostate): > 100 µM; TGI (EKVX NSCLC): > 100 µM; TGI (HCT-116 colon): > 100 µM; TGI (HCT-15 colon): > 100 µM; TGI (HL-60(TB) leukemia): > 100 µM; TGI (HOP-62 NSCLC): > 100 µM; TGI (HOP-92 NSCLC): > 100 µM; TGI (HS 578T breast): > 100 µM; TGI (HT29 colon): > 100 µM; TGI (IGROV1 ovarian): > 100 µM; TGI (K-562 leukemia): > 100 µM; TGI (KM12 colon): > 100 µM; TGI (LOX IMVI melanoma): > 100 µM; TGI (M14 melanoma): > 100 µM; TGI (MALME-3M melanoma): > 100 µM; TGI (MCF7 breast): > 100 µM; TGI (MDA-MB-231 breast): > 100 µM; TGI (MDA-MB-435): > 100 µM; TGI (MDA-N): > 100 µM; TGI (MOLT-4 leukemia): > 100 µM; TGI (NCI-H226 lung): > 100 µM; TGI (NCI-H23 lung): > 100 µM; TGI (NCI-H460 lung): > 100 µM; TGI (NCI-H522 lung): > 100 µM; TGI (NCI/ADR-RES ovarian): > 100 µM; TGI (OVCAR-3 ovarian): > 100 µM; TGI (OVCAR-4 ovarian): > 100 µM; TGI (OVCAR-5 ovarian): > 100 µM; TGI (OVCAR-8 ovarian): > 100 µM; TGI (PC-3 prostate): > 100 µM; TGI (RPMI-8226 leukemia): > 100 µM; TGI (SF-268 CNS): > 100 µM; TGI (SF-295 CNS): > 100 µM; TGI (SF-539 CNS): > 100 µM; TGI (SK-MEL-2 melanoma): > 100 µM; TGI (SK-MEL-28 melanoma): > 100 µM; TGI (SK-MEL-5 melanoma): > 100 µM; TGI (SK-OV-3 ovarian): > 100 µM; TGI (SN12C renal): > 100 µM; TGI (SNB-19 CNS): > 100 µM; TGI (SNB-75 CNS): > 100 µM; TGI (SR leukemia): > 100 µM; TGI (SW-620 colon): > 100 µM; TGI (T-47D breast): > 100 µM; TGI (TK-10 renal): > 100 µM; TGI (U251 CNS): > 100 µM; TGI (UACC-257 melanoma): > 100 µM; TGI (UACC-62 melanoma): > 100 µM

**Q.** With CC(C)(CN1CCCCC1)C(=O)/C=C/c1c(Cl)cccc1Cl as the compound, how does the TGI (786-0 renal) read?
**A.** Its TGI is 2.89 µM.

**Q.** And the TGI (A498 renal)?
**A.** The TGI was 4.96 µM.

**Q.** What about the TGI (A549 NSCLC) of the same compound?
**A.** Its TGI is 5.51 µM.

**Q.** What about the TGI (ACHN renal) of the same compound?
**A.** Its TGI is 3.28 µM.

**Q.** What about the TGI (BT-549 breast) of the same compound?
**A.** The TGI was 4.06 µM.

**Q.** What about the TGI (CAKI-1 renal) of the same compound?
**A.** The TGI was 2.78 µM.

**Q.** What about the TGI (CCRF-CEM leukemia) of the same compound?
**A.** Its TGI is 2.73 µM.

**Q.** And the TGI (COLO 205 colon)?
**A.** Its TGI is 3.05 µM.

**Q.** What about the TGI (DU-145 prostate) of the same compound?
**A.** The TGI was 2.44 µM.

**Q.** And the TGI (EKVX NSCLC)?
**A.** The TGI was 3.24 µM.

**Q.** What about the TGI (HCC-2998 colon) of the same compound?
**A.** The TGI was 3.23 µM.

**Q.** What about the TGI (HCT-116 colon) of the same compound?
**A.** Its TGI is 2.02 µM.

**Q.** What about the TGI (HCT-15 colon) of the same compound?
**A.** Its TGI is 2.28 µM.

**Q.** And the TGI (HL-60(TB) leukemia)?
**A.** The TGI was 4.37 µM.

**Q.** And the TGI (HOP-62 NSCLC)?
**A.** Its TGI is 4.03 µM.

**Q.** What about the TGI (HOP-92 NSCLC) of the same compound?
**A.** The TGI was 2.34 µM.

**Q.** And the TGI (HS 578T breast)?
**A.** Its TGI is 8.8 µM.

**Q.** What about the TGI (HT29 colon) of the same compound?
**A.** Its TGI is 2.89 µM.

**Q.** And the TGI (IGROV1 ovarian)?
**A.** The TGI was 1.13 µM.

**Q.** And the TGI (KM12 colon)?
**A.** The TGI was 2.36 µM.

**Q.** And the TGI (LOX IMVI melanoma)?
**A.** Its TGI is 2.68 µM.

**Q.** What about the TGI (M14 melanoma) of the same compound?
**A.** Its TGI is 2.32 µM.

**Q.** And the TGI (MALME-3M melanoma)?
**A.** The TGI was 2.16 µM.

**Q.** And the TGI (MCF7 breast)?
**A.** The TGI was 5.31 µM.

**Q.** What about the TGI (MDA-MB-231 breast) of the same compound?
**A.** The TGI was 2.15 µM.

**Q.** And the TGI (MDA-MB-435)?
**A.** The TGI was 2.85 µM.

**Q.** What about the TGI (MDA-N) of the same compound?
**A.** The TGI was 2.38 µM.

**Q.** And the TGI (NCI-H226 lung)?
**A.** Its TGI is 9.88 µM.

**Q.** What about the TGI (NCI-H23 lung) of the same compound?
**A.** The TGI was 2.84 µM.

**Q.** And the TGI (NCI-H460 lung)?
**A.** The TGI was 3.86 µM.

**Q.** What about the TGI (NCI-H522 lung) of the same compound?
**A.** Its TGI is 0.913 µM.

**Q.** And the TGI (NCI/ADR-RES ovarian)?
**A.** Its TGI is 5.09 µM.

**Q.** And the TGI (OVCAR-3 ovarian)?
**A.** The TGI was 2.4 µM.

**Q.** And the TGI (OVCAR-4 ovarian)?
**A.** Its TGI is 4.98 µM.

**Q.** What about the TGI (OVCAR-5 ovarian) of the same compound?
**A.** Its TGI is 2.97 µM.

**Q.** And the TGI (OVCAR-8 ovarian)?
**A.** Its TGI is 9.21 µM.

**Q.** What about the TGI (PC-3 prostate) of the same compound?
**A.** Its TGI is 3.46 µM.

**Q.** What about the TGI (RXF 393 renal) of the same compound?
**A.** The TGI was 2.39 µM.

**Q.** What about the TGI (SF-268 CNS) of the same compound?
**A.** Its TGI is 3.88 µM.

**Q.** What about the TGI (SF-295 CNS) of the same compound?
**A.** The TGI was 7.05 µM.

**Q.** And the TGI (SF-539 CNS)?
**A.** The TGI was 6.71 µM.

**Q.** What about the TGI (SK-MEL-2 melanoma) of the same compound?
**A.** The TGI was 3.73 µM.

**Q.** What about the TGI (SK-MEL-28 melanoma) of the same compound?
**A.** The TGI was 3.2 µM.

**Q.** What about the TGI (SK-MEL-5 melanoma) of the same compound?
**A.** The TGI was 2.92 µM.

**Q.** And the TGI (SK-OV-3 ovarian)?
**A.** The TGI was 8.47 µM.

**Q.** What about the TGI (SN12C renal) of the same compound?
**A.** The TGI was 3.1 µM.

**Q.** And the TGI (SNB-19 CNS)?
**A.** Its TGI is 8.39 µM.

**Q.** What about the TGI (SNB-75 CNS) of the same compound?
**A.** The TGI was 2.38 µM.

**Q.** And the TGI (SR leukemia)?
**A.** The TGI was over 100 µM.

**Q.** And the TGI (SW-620 colon)?
**A.** The TGI was 2.29 µM.

**Q.** What about the TGI (T-47D breast) of the same compound?
**A.** Its TGI is 1.44 µM.

**Q.** And the TGI (TK-10 renal)?
**A.** Its TGI is 1.77 µM.

**Q.** And the TGI (U251 CNS)?
**A.** Its TGI is 2.8 µM.

**Q.** What about the TGI (UACC-257 melanoma) of the same compound?
**A.** Its TGI is 6.36 µM.

**Q.** What about the TGI (UACC-62 melanoma) of the same compound?
**A.** The TGI was 2.61 µM.

**Q.** And the TGI (UO-31 renal)?
**A.** The TGI was 2.27 µM.
